Where two headings read alike, the source gives them in different places.
Test system: phosphorylation of Serine 473 in Akt
Test: In Vitro Phospho-Ser473 Akt Assay in MDA-MB-468 cells
Assay type: cell-based
Details: Homo sapiens
[1] = MDA-MB-468, read-out: IC50 values against mTOR, phospho-Ser473 Akt assay, MDA-MB-468 cells
[2] = MDA-MB-468, read-out: IC50 values against mTOR, phospho-Ser473 Akt assay, MDA-MB-468 cells, upper bound

`COc1ccc(-c2ccc3c(N4CCOC[C@@H]4C)nc(N4C(C)CCC4C)nc3n2)cc1CO` (stereo partly shown) [Example 18bg] gave an IC50 [1] of under 100 nM.
`C[C@H]1COCCN1c1nc(N2CCOC[C@@H]2C)c2ccc(-c3ccncc3)nc2n1` [Example 1ar] gave an IC50 [2] of under 1000 nM.
Work on `COc1ccc(-c2ccc3c(N4CCOC[C@@H]4C)nc(NCCO)nc3n2)cc1CO` [Example 18bs] yielded an IC50 [2] of under 1000 nM.
`CCOc1nc(N2CCOC[C@@H]2C)c2ccc(-c3ccc(OC)c(CO)c3)nc2n1` [Example 18cv] gave an IC50 [2] of under 1000 nM.
`C[C@H]1COCCN1c1nc(N2CCOC[C@@H]2C)c2ccc(-c3cccc(CNC(=O)C4CCC4)c3)nc2n1` [Example 5e] showed an IC50 [1] of under 300 nM.
`COc1ccc(-c2ccc3c(N4CCOC[C@@H]4C)nc(N4CCC5CCCCC5C4)nc3n2)cc1CO` (stereo partly shown) [Example 18ag] showed an IC50 [2] of under 1000 nM.
For `CNC(=O)c1cc(-c2ccc3c(N4CCOC[C@@H]4C)nc(N4CCOC[C@@H]4C)nc3n2)ccc1OC` [Example 3ad], the IC50 [1] was under 100 nM.
With `COc1ccc(-c2ccc3c(N4CCOC[C@@H]4C)nc(NCC(F)F)nc3n2)cc1CO` [Example 18bz] the IC50 [1] was under 300 nM.
`COc1ccc(-c2ccc3c(N4CCOC[C@@H]4C)nc(-c4cccc(C(N)=O)c4)nc3n2)cc1CO` [Example 19k] was tested, and the IC50 [1] was under 300 nM.
In the case of `COc1ccc(-c2ccc3c(N4CCOC[C@@H]4C)nc(N4CCN(C)CC4)nc3n2)cc1CO` [Example 18cg], the IC50 [1] is reported as under 300 nM.
With `COc1ccc(-c2ccc3c(N4CCOC[C@@H]4C)nc(N4CCC(N5CCOCC5)CC4)nc3n2)cc1CO` [Example 18ac] the IC50 [1] was under 100 nM.
`COCCNCc1cc(-c2ccc3c(N4CCOC[C@@H]4C)nc(N4CCOC[C@@H]4C)nc3n2)ccc1OC` [Example 4bb] was tested, and the IC50 [1] was under 100 nM.
Work on `COc1ccc(-c2ccc3c(N4CCOC[C@@H]4C)nc(-n4cc(Br)nc4C)nc3n2)cc1CO` [Example 18bc] yielded an IC50 [1] of under 300 nM.
Work on `CNCCNc1nc(N2CCOC[C@@H]2C)c2ccc(-c3ccc(OC)c(CO)c3)nc2n1` [Example 18bv] yielded an IC50 [2] of under 1000 nM.
With `COc1ccc(-c2ccc3c(N4CCOC[C@@H]4C)nc(Nc4cccnc4)nc3n2)cc1CO` [Example 18o] the IC50 [2] was under 1000 nM.
`C[C@H]1COCCN1c1nc(N2CCOC[C@@H]2C)c2ccc(-c3cccc(C(=O)NCCO)c3)nc2n1` [Example 8a] gave an IC50 [1] of under 100 nM.
`COc1ccc(-c2ccc3c(N4CCOC[C@@H]4C)nc(N4CCCC(C(F)(F)F)C4)nc3n2)cc1CO` (stereo partly shown) [Example 18h] gave an IC50 [1] of under 300 nM.
In the case of `C[C@H]1COCCN1c1nc(N2CCC(CO)CC2)nc2nc(-c3cccc(C(N)=O)c3)ccc12` [Example 2h], the IC50 [2] is reported as under 1000 nM.
With `COc1ccc(-c2ccc3c(N4CCOC[C@@H]4C)nc(N(CCO)CCO)nc3n2)cc1CO` [Example 18ck] the IC50 [1] was under 100 nM.
Compound `COc1ccc(-c2ccc3c(N4CCOC[C@@H]4C)nc(N4CCC(c5ccncc5)CC4)nc3n2)cc1CO` [Example 18bi] has an IC50 [1] of under 100 nM.
`C[C@H]1COCCN1c1nc(N2CCOC[C@@H]2C)c2ccc(-c3ccc(CNCC(N)=O)o3)nc2n1` [Example 7j] was tested, and the IC50 [2] was under 1000 nM.
Work on `C[C@H]1COCCN1c1nc(N2CCOC[C@@H]2C)c2ccc(-c3ccc(F)c(CNC(=O)C4CCC4)c3)nc2n1` [Example 5x] yielded an IC50 [2] of under 1000 nM.
For `COCC(=O)NCc1cccc(-c2ccc3c(N4CCOC[C@@H]4C)nc(N4CCOC[C@@H]4C)nc3n2)c1` [Example 5b], the IC50 [1] was under 300 nM.
For `C[C@H]1COCCN1c1nc(N2CCOC[C@@H]2C)c2ccc(-c3cccc(CNc4cc[nH]n4)c3)nc2n1` [Example 4p], the IC50 [1] was under 300 nM.
`C[C@@H]1CN(c2nc(N3CCOC[C@@H]3C)c3ccc(-c4ccc(O)cc4)nc3n2)C[C@H](C)O1` [Example 1cg] was tested, and the IC50 [1] was under 100 nM.
Compound `COc1ccc(-c2ccc3c(N4CCOC[C@@H]4C)nc(N4CCCC(OC)C4)nc3n2)cc1CO` (stereo partly shown) [Example 18aj] has an IC50 [1] of under 300 nM.
For `COc1ccc(-c2ccc3c(N4CCOC[C@@H]4C)nc(N4CCC[C@H](O)C4)nc3n2)cc1CO` [Example 18bj], the IC50 [1] was under 100 nM.
`C[C@H]1COCCN1c1nc(N2CCOC[C@@H]2C)c2ccc(-c3cccc(C(=O)N4CC[C@@H](O)C4)c3)nc2n1` [Example 3g] showed an IC50 [2] of under 1000 nM.
`CCCNC(=O)c1cc(-c2ccc3c(N4CCOC[C@@H]4C)nc(N4CCOC[C@@H]4C)nc3n2)ccc1F` [Example 1ac] was tested, and the IC50 [1] was under 100 nM.
For `COC(=O)[C@@H]1C[C@@H](O)CN1c1nc(N2CCOC[C@@H]2C)c2ccc(-c3ccc(OC)c(CO)c3)nc2n1` [Example 18aa], the IC50 [2] was under 1000 nM.
In the case of `COc1ccc(-c2ccc3c(N4CCOC[C@@H]4C)nc(N4CCCC[C@H]4C)nc3n2)cc1CO` [Example 18a], the IC50 [1] is reported as under 100 nM.
`C[C@H]1COCCN1c1nc(N2CCOC[C@@H]2C)c2ccc(-c3ccc(F)c(CO)c3)nc2n1` [Example 1bc] showed an IC50 [1] of under 100 nM.
With `C[C@H]1COCCN1c1nc(N2CCOC[C@@H]2C)c2ccc(-c3ccc(F)c(CNC4CC4)c3)nc2n1` [Example 4v] the IC50 [2] was under 1000 nM.
`COc1ccc(-c2ccc3c(N4CCOC[C@@H]4C)nc(N4CCC(N5CCCC5)CC4)nc3n2)cc1CO` [Example 18ai] was tested, and the IC50 [2] was under 1000 nM.
`C[C@H]1COCCN1c1nc(N2CCOC[C@@H]2C)c2ccc(-c3ccc(OCCN(C)C)nc3)nc2n1` [Example 13b] showed an IC50 [1] of under 300 nM.
With `C[C@H]1COCCN1c1nc(N2CCOC[C@@H]2C)c2ccc(-c3ccc(F)c(CN4CCC[C@@H](O)C4)c3)nc2n1` [Example 4ah] the IC50 [1] was under 300 nM.
Work on `COCC(=O)N(C)Cc1ccc(-c2ccc3c(N4CCOC[C@@H]4C)nc(N4CCOC[C@@H]4C)nc3n2)cc1` [Example 5s] yielded an IC50 [1] of under 300 nM.
In the case of `COc1ccc(-c2ccc3c(N4CCOC[C@@H]4C)nc(N4CCC(Cc5ccccc5)CC4)nc3n2)cc1CO` [Example 18al], the IC50 [2] is reported as under 1000 nM.
Compound `C[C@H]1COCCN1c1nc(N2CCOC[C@@H]2C)c2ccc(-c3ccc(F)nc3)nc2n1` [Example 1ah] has an IC50 [2] of under 1000 nM.
`COc1ccc(-c2ccc3c(N4CCOC[C@@H]4C)nc(N4CCOC[C@@H]4C)nc3n2)cc1CNCC1CC1` [Example 4ax] was tested, and the IC50 [1] was under 100 nM.
`C[C@H]1COCCN1c1nc(N2CCOC[C@@H]2C)c2ccc(-c3ccc(CNc4cc[nH]n4)o3)nc2n1` [Example 7i] showed an IC50 [2] of under 1000 nM.
In the case of `COc1ccc(-c2ccc3c(N4CCOC[C@@H]4C)nc(N4CCOC[C@@H]4C)nc3n2)cc1CNC1CCCC1` [Example 4an], the IC50 [1] is reported as under 300 nM.
`C[C@@H]1CN(c2nc(N3CCOC[C@@H]3C)c3ccc(-c4ccc(CO)cc4)nc3n2)C[C@H](C)O1` [Example 1by] was tested, and the IC50 [1] was under 300 nM.
`CCN(C)C(=O)c1cc(-c2ccc3c(N4CCOC[C@@H]4C)nc(N4CCOC[C@@H]4C)nc3n2)ccc1OC` [Example 3u] showed an IC50 [2] of under 1000 nM.
In the case of `COc1ccc(-c2ccc3c(N4CCOC[C@@H]4C)nc(N4CCC(C(F)(F)F)CC4)nc3n2)cc1CO` [Example 18af], the IC50 [1] is reported as under 300 nM.
Work on `COc1ccc(-c2ccc3c(N4CCOC[C@@H]4C)nc(NC(C)CN(C)C)nc3n2)cc1CO` (stereo partly shown) [Example 18ct] yielded an IC50 [2] of under 1000 nM.
With `COc1ccc(-c2ccc3c(N4CCOC[C@@H]4C)nc(N4CCOC[C@@H]4C)nc3n2)cc1C(=O)NCCO` [Example 8b] the IC50 [1] was under 100 nM.
`COc1ccc(-c2ccc3c(N4CCOC[C@@H]4C)nc(N4CCCCC4CO)nc3n2)cc1CO` (stereo partly shown) [Example 18bm] was tested, and the IC50 [1] was under 100 nM.
`CC(=O)NCc1ccc(-c2ccc3c(N4CCOC[C@@H]4C)nc(N4CCOC[C@@H]4C)nc3n2)cc1` [Example 5q] showed an IC50 [1] of under 100 nM.
In the case of `C[C@H]1COCCN1c1nc(N2CCOC[C@@H]2C)c2ccc(-c3cccc(C(=O)Nc4cc[nH]n4)c3)nc2n1` [Example 3a], the IC50 [1] is reported as under 300 nM.
In the case of `COc1ccc(-c2ccc3c(N4CCOC[C@@H]4C)nc(N4CCC(N5CCCCC5)CC4)nc3n2)cc1CO` [Example 18z], the IC50 [2] is reported as under 1000 nM.
`CCNc1nc(N2CCOC[C@@H]2C)c2ccc(-c3ccc(OC)c(CO)c3)nc2n1` [Example 18bq] showed an IC50 [1] of under 300 nM.

From patent US9102670B2, “Pyrido-, pyrazo- and pyrimido-pyrimidine derivatives as mTOR inhibitors” (KuDOS Pharmaceuticals Limited, priority 2006, dated 2015)
